Measured values reported in PubChem BioAssay (NCI).
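1) Cells in 96-well plates. 2) Compound, 48 h, 5 concentrations. 3) Linear interpolation between surrounding doses. 4) Unreached endpoint = highest concentration. TGI marks complete inhibition of growth.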

How the values were obtained:
Test in all cases: NCI tumour cell line growth inhibition, 48 h
[1] = test system: 786-0 renal
[2] = test system: A498 renal
[3] = test system: A549 NSCLC
[4] = test system: ACHN renal
[5] = test system: BT-549 breast
[6] = test system: CCRF-CEM leukemia
[7] = test system: COLO 205 colon
[8] = test system: DU-145 prostate
[9] = test system: EKVX NSCLC
[10] = test system: HCC-2998 colon
[11] = test system: HCT-116 colon
[12] = test system: HCT-15 colon
[13] = test system: HL-60(TB) leukemia
[14] = test system: HOP-62 NSCLC
[15] = test system: HOP-92 NSCLC
[16] = test system: HS 578T breast
[17] = test system: HT29 colon
[18] = test system: IGROV1 ovarian
[19] = test system: K-562 leukemia
[20] = test system: KM12 colon
[21] = test system: LOX IMVI melanoma
[22] = test system: M14 melanoma
[23] = test system: MALME-3M melanoma
[24] = test system: MCF7 breast
[25] = test system: MDA-MB-231 breast
[26] = test system: MDA-MB-435
[27] = test system: MDA-N
[28] = test system: MOLT-4 leukemia
[29] = test system: NCI-H226 lung
[30] = test system: NCI-H23 lung
[31] = test system: NCI-H460 lung
[32] = test system: NCI-H522 lung
[33] = test system: NCI/ADR-RES ovarian
[34] = test system: OVCAR-3 ovarian
[35] = test system: OVCAR-4 ovarian
[36] = test system: OVCAR-5 ovarian
[37] = test system: OVCAR-8 ovarian
[38] = test system: PC-3 prostate
[39] = test system: RXF 393 renal
[40] = test system: SF-268 CNS
[41] = test system: SF-295 CNS
[42] = test system: SF-539 CNS
[43] = test system: SK-MEL-2 melanoma
[44] = test system: SK-MEL-28 melanoma
[45] = test system: SK-MEL-5 melanoma
[46] = test system: SK-OV-3 ovarian
[47] = test system: SN12C renal
[48] = test system: SNB-19 CNS
[49] = test system: SNB-75 CNS
[50] = test system: SR leukemia
[51] = test system: SW-620 colon
[52] = test system: T-47D breast
[53] = test system: TK-10 renal
[54] = test system: U251 CNS
[55] = test system: UACC-257 melanoma
[56] = test system: UACC-62 melanoma
[57] = test system: UO-31 renal
[58] = test system: CAKI-1 renal
[59] = test system: RPMI-8226 leukemia

Measured: TGI

CCCNC(C#N)c1ccc(OCCCCCCCCCCOc2ccc(C(C#N)NCCC)cc2)cc1 (configuration not stated)
66.1 µM: [15]
93.9 µM: [29]
61.3 µM: [50]
43 µM: [13]
34.6 µM: [21]
42.7 µM: [2] | [54]
81.1 µM: [34]
69.2 µM: [53]
39.8 µM: [28]
43.7 µM: [6]
65.1 µM: [39]
76.3 µM: [19]
not listed: [58] | [59]
> 100 µM: all other assays above

CCOC(=O)NC
not listed: [28] | [29] | [32] | [37]
> 100 µM: all other assays above
